Tested on: MV-4-11 cells
Experiment: Gene expression microarray analysis (Affymetrix PrimeView) and GSEA
Type: cell-based, human
Set-up: RFU PODN (11730768_x_at) / Fold change /veh PODN (11730768_x_at) / RFU LINC00158 (11744669_a_at) / Fold change /veh LINC00158 (11744669_a_at) / RFU DUSP10 (11751237_a_at) / Fold change /veh DUSP10 (11751237_a_at) / RFU ID3 (11757404_x_at) / Fold change /veh ID3 (11757404_x_at) / RFU PLEKHG5 (11737974_s_at) / Fold change /veh PLEKHG5 (11737974_s_at) / RFU LRRC4B (11730491_at) / Fold change /veh LRRC4B (11730491_at) / RFU GIMAP4 (11747438_a_at) / Fold change /veh GIMAP4 (11747438_a_at) / RFU KRT8 (11758183_x_at) / Fold change /veh KRT8 (11758183_x_at) / RFU CNN1 (11734310_a_at) / Fold change /veh CNN1 (11734310_a_at) / RFU VPS37D (11726825_at) / Fold change /veh VPS37D (11726825_at) / RFU C10orf10 (11716522_x_at) / Fold change /veh C10orf10 (11716522_x_at) / RFU KIR2DL2 /// KIR2DL4 /// KIR2DL5A /// KIR2DL5B /// KIR2DS1 /// KIR2DS2 /// KIR2DS3 /// KIR2DS4 /// KIR3DL3 /// KIR3DL3 /// KIR3DS1 (11738374_at) / Fold change /veh KIR2DL2 /// KIR2DL4 /// KIR2DL5A /// KIR2DL5B /// KIR2DS1 /// KIR2DS2 /// KIR2DS3 /// KIR2DS4 /// KIR3DL3 /// KIR3DL3 /// KIR3DS1 (11738374_at) / RFU C1QL1 (11718748_at) / Fold change /veh C1QL1 (11718748_at) / RFU TMPRSS4 (11747572_a_at) / Fold change /veh TMPRSS4 (11747572_a_at) / RFU HAMP (11756126_x_at) / Fold change /veh HAMP (11756126_x_at) / RFU RNFT2 (11725882_a_at) / Fold change /veh RNFT2 (11725882_a_at) / RFU NR4A2 (11747474_a_at) / Fold change /veh NR4A2 (11747474_a_at) / RFU ABCC12 (11746883_a_at) / Fold change /veh ABCC12 (11746883_a_at) / RFU TMEM136 (11760407_x_at) / Fold change /veh TMEM136 (11760407_x_at) / RFU CLDN22 /// WWC2 (11732394_at) / Fold change /veh CLDN22 /// WWC2 (11732394_at) / RFU HLA-DPB1 (11760878_x_at) / Fold change /veh HLA-DPB1 (11760878_x_at) / RFU SPINT1 (11716480_a_at) / Fold change /veh SPINT1 (11716480_a_at) / RFU GAP43 (11754022_s_at) / Fold change /veh GAP43 (11754022_s_at) / RFU A4GNT (11735810_at) / Fold change /veh A4GNT (11735810_at) / RFU PRB3 (11715151_x_at) / Fold change /veh PRB3 (11715151_x_at) / RFU TUBB4B (11761932_at) / Fold change /veh TUBB4B (11761932_at) / RFU CAPN14 (11732068_a_at) / Fold change /veh CAPN14 (11732068_a_at) / RFU TMCC2 (11721928_a_at) / Fold change /veh TMCC2 (11721928_a_at) / RFU IRGQ (11745062_a_at) / Fold change /veh IRGQ (11745062_a_at) / RFU FAM174B (11720279_a_at) / Fold change /veh FAM174B (11720279_a_at) / RFU TMPRSS4 (11748680_a_at) / Fold change /veh TMPRSS4 (11748680_a_at) / RFU FAM212B (11763350_a_at) / Fold change /veh FAM212B (11763350_a_at) / RFU PLEKHG5 (11743358_a_at) / Fold change /veh PLEKHG5 (11743358_a_at) / RFU ZSCAN30 (11745921_a_at) / Fold change /veh ZSCAN30 (11745921_a_at) / RFU CMKLR1 (11741424_a_at) / Fold change /veh CMKLR1 (11741424_a_at) / RFU LOC101060620 /// MAPK8IP1 (11723275_at) / Fold change /veh LOC101060620 /// MAPK8IP1 (11723275_at) / RFU SPTSSB (11747773_x_at) / Fold change /veh SPTSSB (11747773_x_at) / RFU PRSS12 (11739890_at) / Fold change /veh PRSS12 (11739890_at) / RFU BIN1 (11741810_x_at) / Fold change /veh BIN1 (11741810_x_at) / RFU WNT11 (11732464_a_at) / Fold change /veh WNT11 (11732464_a_at) / RFU C10orf10 (11716521_a_at) / Fold change /veh C10orf10 (11716521_a_at) / RFU C5orf56 (11738089_at) / Fold change /veh C5orf56 (11738089_at) / RFU CYB561 (11721691_x_at) / Fold change /veh CYB561 (11721691_x_at) / RFU ANKRD19P (11752326_a_at) / Fold change /veh ANKRD19P (11752326_a_at) / RFU OR2T12 /// OR2T33 /// OR2T8 (11738714_s_at) / Fold change /veh OR2T12 /// OR2T33 /// OR2T8 (11738714_s_at) / RFU VCAN (11748164_a_at) / Fold change /veh VCAN (11748164_a_at) / RFU JSRP1 (11732532_at) / Fold change /veh JSRP1 (11732532_at) / RFU KRTAP10-11 (11738290_x_at) / Fold change /veh KRTAP10-11 (11738290_x_at) / RFU MYO3A (11730013_a_at) / Fold change /veh MYO3A (11730013_a_at) / RFU EBF3 (11725865_a_at) / Fold change /veh EBF3 (11725865_a_at) / RFU CAMK2N1 (11719241_x_at) / Fold change /veh CAMK2N1 (11719241_x_at) / RFU C5orf56 (11738088_a_at) / Fold change /veh C5orf56 (11738088_a_at) / RFU OLFML3 (11715873_a_at) / Fold change /veh OLFML3 (11715873_a_at) / RFU LOC100653217 /// NTM (11731650_a_at) / Fold change /veh LOC100653217 /// NTM (11731650_a_at) / RFU MAPK11 (11762145_a_at) / Fold change /veh MAPK11 (11762145_a_at) / RFU FIZ1 (11724087_x_at) / Fold change /veh FIZ1 (11724087_x_at) / RFU OASL (11726364_x_at) / Fold change /veh OASL (11726364_x_at) / RFU SOX15 (11748057_x_at) / Fold change /veh SOX15 (11748057_x_at) / RFU CD79A (11719716_a_at) / Fold change /veh CD79A (11719716_a_at) / RFU HIST1H1D (11736915_at) / Fold change /veh HIST1H1D (11736915_at) / RFU CASKIN2 (11723855_a_at) / Fold change /veh CASKIN2 (11723855_a_at) / RFU LOC730098 (11760151_x_at) / Fold change /veh LOC730098 (11760151_x_at) / RFU OR4N2 (11742367_at) / Fold change /veh OR4N2 (11742367_at) / RFU PRRT2 (11749266_a_at) / Fold change /veh PRRT2 (11749266_a_at) / RFU SNX32 (11753110_a_at) / Fold change /veh SNX32 (11753110_a_at) / RFU CDHR5 (11726645_a_at) / Fold change /veh CDHR5 (11726645_a_at) / RFU RCAN1 (11760418_a_at) / Fold change /veh RCAN1 (11760418_a_at) / RFU FAM167A (11723789_a_at) / Fold change /veh FAM167A (11723789_a_at) / RFU FAM26E (11764081_at) / Fold change /veh FAM26E (11764081_at) / RFU ISYNA1 (11749810_s_at) / Fold change /veh ISYNA1 (11749810_s_at) / RFU ACY1 (11761880_at) / Fold change /veh ACY1 (11761880_at) / RFU 11764098_at / Fold change /veh 11764098_at / RFU SAMD14 (11745864_x_at) / Fold change /veh SAMD14 (11745864_x_at) / RFU NPB (11741838_a_at) / Fold change /veh NPB (11741838_a_at) / RFU TMPRSS6 (11731388_a_at) / Fold change /veh TMPRSS6 (11731388_a_at) / RFU KRTAP10-2 (11738614_at) / Fold change /veh KRTAP10-2 (11738614_at) / RFU ARHGAP8 /// PRR5-ARHGAP8 (11727945_x_at) / Fold change /veh ARHGAP8 /// PRR5-ARHGAP8 (11727945_x_at) / RFU KRTAP5-7 /// NADSYN1 (11734609_at) / Fold change /veh KRTAP5-7 /// NADSYN1 (11734609_at) / RFU RASL12 (11751679_a_at) / Fold change /veh RASL12 (11751679_a_at) / RFU CDKN2B (11736163_a_at) / Fold change /veh CDKN2B (11736163_a_at) / RFU PRF1 (11729649_at) / Fold change /veh PRF1 (11729649_at) / RFU, ZNF638 /// ZNF638-IT1 / Fold change vs veh, ZNF638 /// ZNF638-IT1 / RFU, PANK3 / Fold change vs veh, PANK3 / RFU, SH3YL1 / Fold change vs veh, SH3YL1 / RFU, ZEB2 / Fold change vs veh, ZEB2 / RFU, NRIP1 / Fold change vs veh, NRIP1 / RFU, PTTG1IP / Fold change vs veh, PTTG1IP / RFU, CAPN2 / Fold change vs veh, CAPN2 / RFU, MED14 / Fold change vs veh, MED14 / RFU, SNORA58 / Fold change vs veh, SNORA58 / RFU, C1orf63 / Fold change vs veh, C1orf63 / RFU, LRRFIP1 / Fold change vs veh, LRRFIP1 / RFU, NDUFAF7 / Fold change vs veh, NDUFAF7 / RFU, SLC12A2 / Fold change vs veh, SLC12A2 / RFU, IBTK / Fold change vs veh, IBTK / RFU, ESF1 / Fold change vs veh, ESF1 / Fold change vs veh, TMEM50B / RFU, TAOK1 / Fold change vs veh, TAOK1 / RFU, ACBD3 / Fold change vs veh, ACBD3 / RFU, TMA16 / Fold change vs veh, TMA16 / RFU, RWDD3 / Fold change vs veh, RWDD3 / RFU, BCAT1 / Fold change vs veh, BCAT1 / RFU, EDEM3 / Fold change vs veh, EDEM3 / RFU, TMEM33 / Fold change vs veh, TMEM33 / RFU, WDR75 / Fold change vs veh, WDR75 / RFU, AHCTF1 / Fold change vs veh, AHCTF1 / RFU, TFRC / Fold change vs veh, TFRC / RFU, ZDHHC17 / Fold change vs veh, ZDHHC17 / RFU, NOM1 / Fold change vs veh, NOM1 / RFU, ARL8B / Fold change vs veh, ARL8B / RFU, ZBTB11 / Fold change vs veh, ZBTB11 / RFU, TAMM41 / Fold change vs veh, TAMM41 / RFU, KIAA1704 /// LOC100996395 / Fold change vs veh, KIAA1704 /// LOC100996395 / RFU, ING1 / Fold change vs veh, ING1 / RFU, TRMT61B / Fold change vs veh, TRMT61B / RFU, FUBP3 / Fold change vs veh, FUBP3 / RFU, TP53 / Fold change vs veh, TP53 / RFU, TNKS2 / Fold change vs veh, TNKS2 / RFU, ZFP14 / Fold change vs veh, ZFP14 / RFU, ACTR2 / Fold change vs veh, ACTR2 / RFU, PPP3R1 / Fold change vs veh, PPP3R1 / RFU, PIK3R1 / Fold change vs veh, PIK3R1 / RFU, HNRNPA1 / Fold change vs veh, HNRNPA1 / RFU, RNF170 / Fold change vs veh, RNF170 / RFU, ZNF28 / Fold change vs veh, ZNF28 / RFU, RNGTT / Fold change vs veh, RNGTT / RFU, OGT / Fold change vs veh, OGT / RFU, BRD1 / Fold change vs veh, BRD1 / RFU, MARS / Fold change vs veh, MARS / RFU, ZNF655 / Fold change vs veh, ZNF655 / RFU, FAHD1 / Fold change vs veh, FAHD1 / RFU, BDP1 / Fold change vs veh, BDP1 / RFU, LRRCC1 / Fold change vs veh, LRRCC1 / RFU, ARID1A / Fold change vs veh, ARID1A / RFU, ZNF146 / Fold change vs veh, ZNF146 / RFU, ZNF330 / Fold change vs veh, ZNF330 / RFU, GPN3 / Fold change vs veh, GPN3 / RFU, C9orf123 / Fold change vs veh, C9orf123 / RFU, N4BP2L2 / Fold change vs veh, N4BP2L2 / RFU, ARFIP1 / Fold change vs veh, ARFIP1 / RFU, FAM179B / Fold change vs veh, FAM179B / RFU, BCL10 / Fold change vs veh, BCL10 / RFU, UHRF1BP1L / Fold change vs veh, UHRF1BP1L / RFU, BET1 / Fold change vs veh, BET1 / RFU, CNOT2 / Fold change vs veh, CNOT2 / RFU, ZNF268 / Fold change vs veh, ZNF268 / Fold change vs veh, ZNF507 / RFU, DGCR2 / Fold change vs veh, DGCR2 / RFU, WDSUB1 / Fold change vs veh, WDSUB1 / Fold change vs veh, HSP90B1 /// MIR3652 / RFU, ADSS / Fold change vs veh, ADSS / RFU, GK / Fold change vs veh, GK / RFU, ZNF148 / Fold change vs veh, ZNF148 / RFU, TAF9 / Fold change vs veh, TAF9 / RFU, SLC1A5 / Fold change vs veh, SLC1A5 / RFU, SLMO2 / Fold change vs veh, SLMO2 / RFU, ABCC4 / Fold change vs veh, ABCC4 / RFU, LOC101060439 /// RAP1B / Fold change vs veh, LOC101060439 /// RAP1B / RFU, RFX7 / Fold change vs veh, RFX7 / RFU, GTPBP10 / Fold change vs veh, GTPBP10 / RFU, CNEP1R1 / Fold change vs veh, CNEP1R1 / RFU, BIVM-ERCC5 /// ERCC5 / Fold change vs veh, BIVM-ERCC5 /// ERCC5 / RFU, ILF3 / Fold change vs veh, ILF3 / RFU 11762660_at / Fold change /veh 11762660_at / RFU VCAN (11757783_s_at) / Fold change /veh VCAN (11757783_s_at) / RFU DDX43 (11728927_at) / Fold change /veh DDX43 (11728927_at) / RFU KRT8 (11758188_x_at) / Fold change /veh KRT8 (11758188_x_at) / RFU NKD1 (11759106_at) / Fold change /veh NKD1 (11759106_at) / RFU SRD5A1 (11742802_a_at) / Fold change /veh SRD5A1 (11742802_a_at) / RFU TPSAB1 /// TPSB2 (11721975_s_at) / Fold change /veh TPSAB1 /// TPSB2 (11721975_s_at) / RFU GSTM3 (11746129_a_at) / Fold change /veh GSTM3 (11746129_a_at) / RFU IL23R (11737362_x_at) / Fold change /veh IL23R (11737362_x_at) / RFU TMEM51 (11727254_a_at) / Fold change /veh TMEM51 (11727254_a_at) / RFU PIWIL2 (11732686_x_at) / Fold change /veh PIWIL2 (11732686_x_at) / RFU ORM1 (11744905_x_at) / Fold change /veh ORM1 (11744905_x_at) / RFU CCDC152 (11743942_at) / Fold change /veh CCDC152 (11743942_at) / RFU ECM1 (11717891_a_at) / Fold change /veh ECM1 (11717891_a_at) / RFU IL23R (11748794_a_at) / Fold change /veh IL23R (11748794_a_at) / RFU TNFAIP8L3 (11732012_x_at) / Fold change /veh TNFAIP8L3 (11732012_x_at) / RFU MBOAT4 (11741988_at) / Fold change /veh MBOAT4 (11741988_at) / RFU 11764193_at / Fold change /veh 11764193_at / RFU TMEM53 (11763286_at) / Fold change /veh TMEM53 (11763286_at) / RFU MAGEB2 (11727129_at) / Fold change /veh MAGEB2 (11727129_at) / RFU TMEM200A (11744735_a_at) / Fold change /veh TMEM200A (11744735_a_at) / RFU CCDC152 (11751479_a_at) / Fold change /veh CCDC152 (11751479_a_at) / RFU FAM211A (11726209_a_at) / Fold change /veh FAM211A (11726209_a_at) / RFU RGS16 (11746705_a_at) / Fold change /veh RGS16 (11746705_a_at) / RFU VCAN (11755009_s_at) / Fold change /veh VCAN (11755009_s_at) / RFU RHOB (11743442_s_at) / Fold change /veh RHOB (11743442_s_at) / RFU RGS16 (11720943_a_at) / Fold change /veh RGS16 (11720943_a_at) / RFU RGS16 (11720944_at) / Fold change /veh RGS16 (11720944_at) / RFU, VPS4B / Fold change vs veh, VPS4B / RFU, CREB1 / Fold change vs veh, CREB1 / RFU, DNAJC13 / Fold change vs veh, DNAJC13 / RFU, GNAQ / Fold change vs veh, GNAQ / RFU, CDK5R1 / Fold change vs veh, CDK5R1 / RFU, ZRANB3 / Fold change vs veh, ZRANB3 / RFU, CUL4A / Fold change vs veh, CUL4A / RFU, CCNY / Fold change vs veh, CCNY / RFU, UFL1 / Fold change vs veh, UFL1 / RFU, COG3 / Fold change vs veh, COG3 / RFU, DIAPH2 / Fold change vs veh, DIAPH2 / RFU, SKA2 / Fold change vs veh, SKA2 / RFU, AFF3 / Fold change vs veh, AFF3 / RFU, LMF1 / Fold change vs veh, LMF1 / RFU, IPO11 / Fold change vs veh, IPO11 / RFU, DFFB / Fold change vs veh, DFFB / RFU, FOXP1 / Fold change vs veh, FOXP1 / RFU, CARD8 / Fold change vs veh, CARD8 / RFU, STRN3 / Fold change vs veh, STRN3 / RFU, ADK / Fold change vs veh, ADK / RFU, RASSF2 / Fold change vs veh, RASSF2 / RFU, WIPF1 / Fold change vs veh, WIPF1 / RFU, LARP1B / Fold change vs veh, LARP1B / RFU, RASA1 / Fold change vs veh, RASA1 / RFU, RB1 / Fold change vs veh, RB1 / RFU, PPFIA1 / Fold change vs veh, PPFIA1 / RFU, MAT2A / Fold change vs veh, MAT2A / RFU, CCT5 / Fold change vs veh, CCT5 / RFU, WDR92 / Fold change vs veh, WDR92 / RFU, CUX1 / Fold change vs veh, CUX1 / RFU, TTC7A / Fold change vs veh, TTC7A / RFU, TMEM135 / Fold change vs veh, TMEM135 / RFU, DEPTOR / Fold change vs veh, DEPTOR / RFU, CPM / Fold change vs veh, CPM / RFU, DNAJB6 / Fold change vs veh, DNAJB6 / RFU, CACNA2D3 / Fold change vs veh, CACNA2D3 / RFU, DTX4 / Fold change vs veh, DTX4 / RFU, TFCP2 / Fold change vs veh, TFCP2 / RFU, GMCL1 /// GMCL1P1 / Fold change vs veh, GMCL1 /// GMCL1P1 / RFU, AEBP2 / Fold change vs veh, AEBP2 / RFU, SNHG1 /// SNORD22 /// SNORD25 /// SNORD26 /// SNORD27 /// SNORD28 /// SNORD29 /// SNORD31 / Fold change vs veh, SNHG1 /// SNORD22 /// SNORD25 /// SNORD26 /// SNORD27 /// SNORD28 /// SNORD29 /// SNORD31 / Fold change (Aza/veh), C12orf56 (ProbeSet 11735607_a_at) / Fold change (ACY-1035/veh), C12orf56 (ProbeSet 11735607_a_at) / Fold change (Aza/veh), FGFR1OP (ProbeSet 11751329_s_at) / Fold change (ACY-1035/veh), FGFR1OP (ProbeSet 11751329_s_at) / Fold change (Aza/veh), VPS36 (ProbeSet 11739960_a_at) / Fold change (ACY-1035/veh), VPS36 (ProbeSet 11739960_a_at) / RFU SYPL1 (11715823_x_at) / Fold change /veh SYPL1 (11715823_x_at) / RFU IGFBP7 (11715501_s_at) / Fold change /veh IGFBP7 (11715501_s_at) / RFU REEP3 (11722064_at) / Fold change /veh REEP3 (11722064_at) / RFU IGLL1 (11728026_x_at) / Fold change /veh IGLL1 (11728026_x_at): dose or concentration left out as unconfirmed
Conditions: ProbeSet 11750457_a_at; LIST B

With Nc1ccc(-c2cccs2)cc1NC(=O)c1ccc2c(c1)cc(C1CC1)n2CCN1CCOCC1 [ACY-1035] the “RFU, GTPBP10” value was 30.83 RFU.
